The source of these data is US20260041753A1, “RESPIRATORY SYNCYTIAL VIRUS SURFACE GL[…], CONJUGATES, AND USES THEREOF” (Dana-Farber Cancer Institute, Inc., priority 2023, published 2026).

Data set [1] concerns live human Respiratory Syncytial Virus with Green Fluorescent Protein (RSV-GFP1). Format: cell-based. As to conditions: for antiviral activity in the GFP-RSV live virus assay (staple and PEG scanning): dose of 2 μM, RSV-GFP in A549 cells after 48 hours (FIG. 15); for improvement in anti-viral activity compared to the singly stapled RSV HR2 peptide of SEQ ID NO: 4: versus single staple alone with an additional 6 HR2 amino acids at the C-terminus. As to the method:
Antiviral Efficacy Assays: The efficiency of the peptide-cholesterol conjugates of the invention in preventing and treating infection of live human Respiratory Syncytial Virus with Green Fluorescent Protein (RSV-GFP1) are evaluated in monolayer cell cultures. A549 cells plated in 384-well format are treated for 30 min with a serial dilution of stapled peptides (e.g. 1-5 […] or a fixed dose, e.g. […]), performed in quadruplicate, followed by addition of GFP-RSV live virus assay (0.75-1.25 μL of virus per well) and incubation for 48-72 hours. Infected cells are then washed with PBS. Hoechst 33342 (cell permeable nuclear dye) and DRAQ7 (cell impermeable nuclear dye) are added and the plate imaged on a Molecular Devices ImageXpress Micro Confocal Laser at 4× magnification. GFP (+) cells are counted and total GFP(+) cells or percent GFP(+) cells are plotted using Prism software (Graphpad). Cytotoxicity is determined by the ratio of DRAQ7 (+) Hoechst 33342 (+) to DRAQ7 (−) Hoechst 33342 (+) cells.

Data set [2] is described as follows: Solubility of stapled lipopeptides in buffer (FIG. 18). In kind it is physicochemical. The following applies: 15 mg/mL in 15% DMSO, PBS pH 7.4. As to the method: Buffer conditions are 15 mg/mL in 15% DMSO, PBS pH 7.4.
The nature of data set [3]: pI of stapled lipopeptides. Format: physicochemical.
Where [4] appears, read: GFP-RSV live virus, A549 cells, read-out at 48 hours (FIGS. 13, 16, 17), read-out: IC50, antiviral activity in live RSV virus assay.

Read-outs that look alike come from different tables or passages of the source. Where a SMILES comes first, the peptide text is derived from it. Bridges are numbered along the chain shown (N, C = ends). Primed or numbered codes have the meaning given here. Where no end group is shown, it is not given here. Side-chain parts run from the residue outwards. [ ]: non-standard residue; d: D form. The star is where a group is joined. ξ: configuration not given here. thiocholesterol = thiocholesterol moiety attached via the PEG4 linker to the lysine epsilon side chain, CC(C)CCC[C@@H](C)[C@H]1CC[C@H]2[C@@H]3CC=C4C[C@@H](S*)CC[C@]4(C)[C@H]3CC[C@]12C; Acetyl(2-S-cholesteryl) = CC(C)CCC[C@@H](C)[C@H]1CC[C@H]2[C@@H]3CC=C4C[C@@H](SCC(=O)*)CC[C@]4(C)[C@H]3CC[C@]12C; Acetyl(2-S-3ξ-cholesteryl) = CC(C)CCC[C@@H](C)[C@H]1CC[C@H]2[C@@H]3CC=C4CC(SCC(=O)*)CC[C@]4(C)[C@H]3CC[C@]12C; PEG20 = NCCOCCOCCOCCOCCOCCOCCOCCOCCOCCOCCOCCOCCOCCOCCOCCOCCOCCOCCOCCOCCC(=O)O; PEG16 = NCCOCCOCCOCCOCCOCCOCCOCCOCCOCCOCCOCCOCCOCCOCCOCCOCCC(=O)O; PEG4′ = 4x polyethylene glycol linker; R8 = C=CCCCCCC[C@@](C)(N)C(=O)O; PEG4 = NCCOCCOCCOCCOCCC(=O)O; S5 = C=CCCC[C@](C)(N)C(=O)O

Consider “FDASISQVN8KINQSLXFIRKSDELLHNV* (FDASISQVNXKINQSLXFIRKSDELLHNVK; not fully specified; Lys(epsilon-(PEG)4-thiocholesterol); non-natural residues 8, X; SITE 10 (R)-alpha-(7'-octenyl)alanine; SITE 17 (S)-alpha-(4'-pentenyl)alanine; SITE 30 Residue side chain modified at the epsilon carbon with 4x polyethylene glycol attached to thiocholesterol) [SEQ ID NO: 14]”, for which the “antiviral activity in the GFP-RSV live virus assay (staple and PEG scanning)” value (“antiviral activity” below) in data set [1] is reported as “potent activity”.

A word on the IC50: it is the concentration that inhibits the measured activity by half. As for `CC[C@H](C)[C@H](NC(=O)[C@H](CO)NC(=O)[C@H](C)NC(=O)[C@H](CC(=O)O)NC(=O)[C@H](Cc1ccccc1)NC(C)=O)C(=O)N[C@@H](CO)C(=O)N[C@@H](CCC(N)=O)C(=O)N[C@H](C(=O)N[C@@H](CC(N)=O)C(=O)N[C@@H](CCC(=O)O)C(=O)N[C@@H](CCCCN)C(=O)N[C@H](C(=O)N[C@@H](CC(N)=O)C(=O)N[C@@H](CCC(N)=O)C(=O)N[C@@H](CO)C(=O)N[C@@H](CC(C)C)C(=O)N[C@]1(C)CCCCCCC=CCCC[C@@](C)(C(=O)N[C@@H](CC(C)C)C(=O)N[C@@H](CC(C)C)C(=O)N[C@@H](Cc2c[nH]cn2)C(=O)N[C@@H](CC(N)=O)C(=O)N[C@H](C(=O)N[C@@H](CCCCNC(=O)CCOCCOCCOCCOCCOCCOCCOCCOCCOCCOCCOCCOCCOCCOCCOCCOCCOCCOCCOCCOCCNC(=O)CS[C@H]2CC[C@@]3(C)C(=CC[C@H]4[C@@H]5CC[C@H]([C@H](C)CCCC(C)C)[C@@]5(C)CC[C@@H]43)C2)C(N)=O)C(C)C)NC(=O)[C@H](CC(=O)O)NC(=O)[C@H](CO)NC(=O)[C@H](CCCCN)NC(=O)[C@H](CCCNC(=N)N)NC(=O)[C@H]([C@@H](C)CC)NC(=O)[C@H](Cc2ccccc2)NC1=O)[C@@H](C)CC)C(C)C` [PEG20-thichol SEQ ID NO: 21] (Ac-FDASISQVNEKINQSL[R8]FIRKSD[S5]LLHNVK([PEG20-Acetyl(2-S-cholesteryl)])-NH2; staple 17-24), the half-maximal inhibitory concentration (IC50) in data set [1] (setting [4]) was found to be 8.2 nM.

In the case of “PEG16-thiochol SEQ IQ NO: 5: SEQ ID NO:51 with PEG(n)-thiocholesterol linked via a C-terminal lysine, n is 16 (FDXSISQVNXKINQSLAFIRKSDELLHNVK; not fully specified; C-terminal Lys-PEG16-thiocholesterol; SITE 3 (R)-alpha-(7'-octenyl)alanine; SITE 10 (S)-alpha-(4'-pentenyl)alanine; SITE 30 Residue attached to 16x polyethylene glycol thiocholesterol)”, in data set [1] (setting [4]), the IC50 was found to be 49 nM. The “improvement in anti-viral activity compared to the singly stapled RSV HR2 peptide of SEQ ID NO: 4” value in data set [1] is reported as “greater than two orders of magnitude”.

Turning to “SDEFDASISQVNEKINQSL8FIRKSDXLLHNV* (SDEFDASISQVNEKINQSL[R8]FIRKSD[S5]LLHNV; staple 20-27; also: C-terminal linker-lipid (*), exact composition not fixed) [SEQ ID NO: 281]”, the solubility result in data set [2] is listed as “fully soluble”; in data set [2] (listed as SEQ ID NO:21 with three native N-terminal residues “SDE”) it was “complete solubility”. For the same molecule, the pI in data set [3] amounted to 4.7.

On to “8DASISQXNEKINQSLAFIRKSDELLHNV* ([R8]DASISQ[S5]NEKINQSLAFIRKSDELLHNVK([PEG4′-thiocholesterol]); staple 1-8) [SEQ ID NO: 6, * =Lys(epsilon-(PEG)4-thiocholesterol)]”, for which the “antiviral activity” value in data set [1] was “potent activity”.

With “PEG20-thiochol SEQ IQ NO: 5: SEQ ID NO:51 with PEG(n)-thiocholesterol linked via a C-terminal lysine, n is 20 (FDXSISQVNXKINQSLAFIRKSDELLHNVK; not fully specified; C-terminal Lys-PEG20-thiocholesterol; SITE 3 (R)-alpha-(7'-octenyl)alanine; SITE 10 (S)-alpha-(4'-pentenyl)alanine; SITE 30 Residue attached to 20x polyethylene glycol thiocholesterol)”, the IC50 in data set [1] (setting [4]) came out at 60 nM. The “improvement in anti-viral activity compared to the singly stapled RSV HR2 peptide of SEQ ID NO: 4” value in data set [1] was “greater than two orders of magnitude”.

Turning to `CC[C@H](C)[C@H](NC(=O)[C@H](CO)NC(=O)[C@H](C)NC(=O)[C@H](CC(=O)O)NC(=O)[C@H](Cc1ccccc1)NC(C)=O)C(=O)N[C@@H](CO)C(=O)N[C@@H](CCC(N)=O)C(=O)N[C@H](C(=O)N[C@@H](CC(N)=O)C(=O)N[C@@H](CCC(=O)O)C(=O)N[C@@H](CCCCN)C(=O)N[C@H](C(=O)N[C@@H](CC(N)=O)C(=O)N[C@@H](CCC(N)=O)C(=O)N[C@@H](CO)C(=O)N[C@@H](CC(C)C)C(=O)N[C@]1(C)CCCCCCC=CCCC[C@@](C)(C(=O)N[C@@H](CC(C)C)C(=O)N[C@@H](CC(C)C)C(=O)N[C@@H](Cc2c[nH]cn2)C(=O)N[C@@H](CC(N)=O)C(=O)N[C@H](C(=O)N[C@@H](CCCCNC(=O)CCOCCOCCOCCOCCNC(=O)CSC2CC[C@@]3(C)C(=CC[C@H]4[C@@H]5CC[C@H]([C@H](C)CCCC(C)C)[C@@]5(C)CC[C@@H]43)C2)C(N)=O)C(C)C)NC(=O)[C@H](CC(=O)O)NC(=O)[C@H](CO)NC(=O)[C@H](CCCCN)NC(=O)[C@H](CCCNC(=N)N)NC(=O)[C@H]([C@@H](C)CC)NC(=O)[C@H](Cc2ccccc2)NC1=O)[C@@H](C)CC)C(C)C` (stereo partly drawn) [SEQ ID NO: 21, FDASISQVNEKINQSL8FIRKSDXLLHNV*] (Ac-FDASISQVNEKINQSL[R8]FIRKSD[S5]LLHNVK([PEG4-Acetyl(2-S-3ξ-cholesteryl)])-NH2; staple 17-24), the results for the solubility entry in data set [2] and in data set [2] (listed as SEQ ID NO:21) were “visible pellet” and “Poor solubility”, respectively.

For the molecule `CC[C@H](C)[C@H](NC(=O)[C@H](CO)NC(=O)[C@H](C)NC(=O)[C@H](CC(=O)O)NC(=O)[C@H](Cc1ccccc1)NC(C)=O)C(=O)N[C@@H](CO)C(=O)N[C@@H](CCC(N)=O)C(=O)N[C@H](C(=O)N[C@@H](CC(N)=O)C(=O)N[C@@H](CCC(=O)O)C(=O)N[C@@H](CCCCN)C(=O)N[C@H](C(=O)N[C@@H](CC(N)=O)C(=O)N[C@@H](CCC(N)=O)C(=O)N[C@@H](CO)C(=O)N[C@@H](CC(C)C)C(=O)N[C@]1(C)CCCCCCC=CCCC[C@@](C)(C(=O)N[C@@H](CC(C)C)C(=O)N[C@@H](CC(C)C)C(=O)N[C@@H](Cc2c[nH]cn2)C(=O)N[C@@H](CC(N)=O)C(=O)N[C@H](C(=O)N[C@@H](CCCCNC(=O)CCOCCOCCOCCOCCOCCOCCOCCOCCOCCOCCOCCOCCOCCOCCOCCOCCNC(=O)CS[C@H]2CC[C@@]3(C)C(=CC[C@H]4[C@@H]5CC[C@H]([C@H](C)CCCC(C)C)[C@@]5(C)CC[C@@H]43)C2)C(N)=O)C(C)C)NC(=O)[C@H](CC(=O)O)NC(=O)[C@H](CO)NC(=O)[C@H](CCCCN)NC(=O)[C@H](CCCNC(=N)N)NC(=O)[C@H]([C@@H](C)CC)NC(=O)[C@H](Cc2ccccc2)NC1=O)[C@@H](C)CC)C(C)C` [PEG16-thiochol SEQ ID NO: 21] (Ac-FDASISQVNEKINQSL[R8]FIRKSD[S5]LLHNVK([PEG16-Acetyl(2-S-cholesteryl)])-NH2; staple 17-24), in data set [1] (setting [4]), the concentration for half-maximal inhibition (IC50) was determined as 18 nM.

Regarding `CC[C@H](C)[C@H](NC(=O)[C@H](Cc1ccccc1)NC(=O)[C@H](C)NC(=O)[C@H](CC(C)C)NC(=O)[C@H](CO)NC(=O)[C@H](CCC(N)=O)NC(=O)[C@H](CC(N)=O)NC(=O)[C@@H](NC(=O)[C@H](CCCCN)NC(=O)[C@]1(C)CCCC=CCCCCCC[C@@](C)(NC(=O)[C@H](CC(=O)O)NC(=O)[C@H](Cc2ccccc2)NC(C)=O)C(=O)N[C@@H](CO)C(=O)N[C@@H]([C@@H](C)CC)C(=O)N[C@@H](CO)C(=O)N[C@@H](CCC(N)=O)C(=O)N[C@@H](C(C)C)C(=O)N[C@@H](CC(N)=O)C(=O)N1)[C@@H](C)CC)C(=O)N[C@@H](CCCNC(=N)N)C(=O)N[C@@H](CCCCN)C(=O)N[C@@H](CO)C(=O)N[C@@H](CC(=O)O)C(=O)N[C@@H](CCC(=O)O)C(=O)N[C@@H](CC(C)C)C(=O)N[C@@H](CC(C)C)C(=O)N[C@@H](Cc1c[nH]cn1)C(=O)N[C@@H](CC(N)=O)C(=O)N[C@H](C(=O)N[C@@H](CCCCNC(=O)CCOCCOCCOCCOCCNC(=O)CS[C@H]1CC[C@@]2(C)C(=CC[C@H]3[C@@H]4CC[C@H]([C@H](C)CCCC(C)C)[C@@]4(C)CC[C@@H]32)C1)C(N)=O)C(C)C` [SEQ ID NO: 5, FD8SISQVNXKINQSLAFIRKSDELLHNV*] (Ac-FD[R8]SISQVN[S5]KINQSLAFIRKSDELLHNVK([PEG4-Acetyl(2-S-cholesteryl)])-NH2; staple 3-10), in data set [1] (setting [4]), the 50% inhibitory concentration (IC50) worked out at 130 nM. In data set [1], the “antiviral activity” value is recorded as “potent activity”; the “improvement in anti-viral activity compared to the singly stapled RSV HR2 peptide of SEQ ID NO: 4” value was “an order of magnitude”. The half-maximal inhibitory concentration (IC50) in data set [1] (live RSV virus (FIG. 13), read-out: IC50, infectivity assay using live RSV virus) was found to be 130 nM.

As to “FDASISQVNEKINQSLAFI8KSDELLXNV* (FDASISQVNEKINQSLAFI[R8]KSDELL[S5]NVK([PEG4′-thiocholesterol]); staple 20-27 (inferred)) [SEQ ID NO: 24, * =Lys(epsilon-(PEG)4-thiocholesterol)]”, the “antiviral activity” value in data set [1] is recorded as “potent activity”.
